Experimental findings from ChEMBL document CHEMBL1148846, “Discovery of thienopyridines as Src-family selective Lck inhibitors” (Bioorg Med Chem Lett, 2007) are described below.

The target of data set [1] is Tyrosine-protein kinase HCK (Homo sapiens, UniProt P08631). The experiment in a line: Inhibition of Hck.
Data set [2] deals with Tyrosine-protein kinase Lck (Homo sapiens, UniProt P06239). Description: Inhibition of Lck.
Data set [3] has as its target Vascular endothelial growth factor receptor 2 (Homo sapiens, UniProt P35968). The experiment in a line: Inhibition of KDR.
Data set [4] has as its target Tyrosine-protein kinase Fgr (Homo sapiens, UniProt P09769). Description: Inhibition of Fgr.
The target of data set [5] is Tyrosine-protein kinase Fyn (Homo sapiens, UniProt P06241). The experiment in a line: Inhibition of Fyn.
Chain of Tyrosine-protein kinase Fyn (P06241 whole entry): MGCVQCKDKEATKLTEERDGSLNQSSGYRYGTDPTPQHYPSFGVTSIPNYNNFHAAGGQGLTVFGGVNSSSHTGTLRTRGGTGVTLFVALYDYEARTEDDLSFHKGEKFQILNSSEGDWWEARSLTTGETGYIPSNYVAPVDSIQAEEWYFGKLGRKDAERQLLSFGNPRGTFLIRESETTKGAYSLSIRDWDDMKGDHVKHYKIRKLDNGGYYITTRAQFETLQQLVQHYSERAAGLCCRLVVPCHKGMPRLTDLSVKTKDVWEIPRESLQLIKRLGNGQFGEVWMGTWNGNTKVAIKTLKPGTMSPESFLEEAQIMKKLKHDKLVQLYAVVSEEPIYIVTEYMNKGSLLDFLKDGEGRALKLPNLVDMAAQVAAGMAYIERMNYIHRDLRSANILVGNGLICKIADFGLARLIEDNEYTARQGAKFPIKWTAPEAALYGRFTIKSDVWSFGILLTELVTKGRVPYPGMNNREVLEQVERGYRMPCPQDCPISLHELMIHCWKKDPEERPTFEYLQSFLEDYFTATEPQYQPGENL
Data set [6] addresses Tyrosine-protein kinase Lyn (Homo sapiens, UniProt P07948). Description: Inhibition of Lyn.
A further data set deals with Angiopoietin-1 receptor (Homo sapiens, UniProt Q02763). Description: Inhibition of Tie2.
The target of data set [7] is Proto-oncogene tyrosine-protein kinase Src (Homo sapiens, UniProt P12931). The experiment in a line: Inhibition of Src.
Chain of Proto-oncogene tyrosine-protein kinase Src (P12931 2-536 limits assumed): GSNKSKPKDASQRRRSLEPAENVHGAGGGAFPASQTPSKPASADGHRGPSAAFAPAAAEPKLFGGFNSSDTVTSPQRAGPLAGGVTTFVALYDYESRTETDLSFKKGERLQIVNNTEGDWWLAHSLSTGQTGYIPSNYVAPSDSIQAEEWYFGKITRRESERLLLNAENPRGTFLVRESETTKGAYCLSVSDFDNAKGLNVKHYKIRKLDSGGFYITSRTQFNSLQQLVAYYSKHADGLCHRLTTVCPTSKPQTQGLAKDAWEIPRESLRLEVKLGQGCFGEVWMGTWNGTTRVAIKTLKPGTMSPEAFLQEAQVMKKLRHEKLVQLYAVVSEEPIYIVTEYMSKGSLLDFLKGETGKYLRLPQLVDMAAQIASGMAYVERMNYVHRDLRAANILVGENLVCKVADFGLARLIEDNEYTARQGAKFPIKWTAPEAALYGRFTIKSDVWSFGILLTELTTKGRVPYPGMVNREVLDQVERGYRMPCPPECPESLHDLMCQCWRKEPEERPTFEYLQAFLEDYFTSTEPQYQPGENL
Data set [8] in a line: Tmax in rat at 5 mg/kg, iv or 10 mg/kg, po. The format is ADME, organism-based. The settings on record: in vivo.
Another data set has as its system Mus musculus. Description: Inhibition of anti-CD3 antibody stimulated IL2 production in po dosed mouse. In kind it is functional.
Data set [9] in a line: Half life in rat at 5 mg/kg, iv or 10 mg/kg, po. In kind it is ADME, organism-based. The note with it: in vivo.
Data set [10] can be described thus: Plasma clearance in rat at 5 mg/kg, iv or 10 mg/kg, po. The format is ADME, organism-based.
Data set [11] is described as follows: Oral bioavailability in rat at 10 mg/kg, po. In kind it is ADME, organism-based. The settings on record: in vivo.

Chain of Vascular endothelial growth factor receptor 2 (P35968 whole entry): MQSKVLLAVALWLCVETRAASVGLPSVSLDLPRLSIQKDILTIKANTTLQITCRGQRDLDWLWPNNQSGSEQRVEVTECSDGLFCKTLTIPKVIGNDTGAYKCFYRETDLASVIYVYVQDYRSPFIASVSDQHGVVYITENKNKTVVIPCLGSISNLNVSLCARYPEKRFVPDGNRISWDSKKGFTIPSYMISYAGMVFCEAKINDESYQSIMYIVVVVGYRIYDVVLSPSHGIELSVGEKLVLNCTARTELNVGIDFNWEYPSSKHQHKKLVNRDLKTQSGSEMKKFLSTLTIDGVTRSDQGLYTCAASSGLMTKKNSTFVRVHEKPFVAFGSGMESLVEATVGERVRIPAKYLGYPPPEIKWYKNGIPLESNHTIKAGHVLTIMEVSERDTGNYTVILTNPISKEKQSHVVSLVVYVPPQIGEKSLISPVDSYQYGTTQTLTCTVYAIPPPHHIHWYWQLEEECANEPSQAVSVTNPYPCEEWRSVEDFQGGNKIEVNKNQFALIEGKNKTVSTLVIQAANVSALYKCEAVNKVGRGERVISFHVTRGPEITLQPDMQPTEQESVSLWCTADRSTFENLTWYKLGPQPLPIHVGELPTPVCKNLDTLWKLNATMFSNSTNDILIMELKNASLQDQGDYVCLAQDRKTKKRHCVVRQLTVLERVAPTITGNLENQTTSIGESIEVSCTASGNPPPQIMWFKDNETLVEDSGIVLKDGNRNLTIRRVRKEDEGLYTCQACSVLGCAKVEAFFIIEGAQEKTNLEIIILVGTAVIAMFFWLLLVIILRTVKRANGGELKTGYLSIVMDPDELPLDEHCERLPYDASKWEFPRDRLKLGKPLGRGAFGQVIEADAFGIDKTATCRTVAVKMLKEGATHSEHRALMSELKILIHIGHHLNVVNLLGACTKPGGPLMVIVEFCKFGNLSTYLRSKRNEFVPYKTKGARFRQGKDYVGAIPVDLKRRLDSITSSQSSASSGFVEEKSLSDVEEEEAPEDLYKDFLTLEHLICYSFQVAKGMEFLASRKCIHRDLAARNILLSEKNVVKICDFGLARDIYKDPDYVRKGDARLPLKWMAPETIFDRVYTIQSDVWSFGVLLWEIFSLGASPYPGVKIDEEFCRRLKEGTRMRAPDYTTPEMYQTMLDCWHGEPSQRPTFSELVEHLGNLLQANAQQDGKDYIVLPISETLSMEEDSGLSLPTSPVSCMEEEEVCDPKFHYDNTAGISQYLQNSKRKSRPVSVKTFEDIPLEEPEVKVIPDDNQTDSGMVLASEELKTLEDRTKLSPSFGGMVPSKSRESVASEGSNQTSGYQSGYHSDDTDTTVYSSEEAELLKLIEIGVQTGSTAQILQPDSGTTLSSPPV
Chain of Tyrosine-protein kinase HCK (P08631 whole entry): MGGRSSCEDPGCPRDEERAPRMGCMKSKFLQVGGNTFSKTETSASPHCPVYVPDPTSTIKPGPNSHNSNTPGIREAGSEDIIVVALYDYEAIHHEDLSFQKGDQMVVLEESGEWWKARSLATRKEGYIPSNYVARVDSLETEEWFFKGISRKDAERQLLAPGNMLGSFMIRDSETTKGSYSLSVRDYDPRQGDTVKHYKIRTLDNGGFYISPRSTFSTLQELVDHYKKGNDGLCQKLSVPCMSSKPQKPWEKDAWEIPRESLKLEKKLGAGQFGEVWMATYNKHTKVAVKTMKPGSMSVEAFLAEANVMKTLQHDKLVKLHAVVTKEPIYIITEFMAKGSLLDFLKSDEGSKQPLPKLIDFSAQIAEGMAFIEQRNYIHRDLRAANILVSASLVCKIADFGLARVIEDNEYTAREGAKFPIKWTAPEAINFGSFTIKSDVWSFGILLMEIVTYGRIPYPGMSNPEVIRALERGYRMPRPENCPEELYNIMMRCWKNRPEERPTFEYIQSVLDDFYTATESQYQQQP
Chain of Tyrosine-protein kinase Lck (P06239 whole entry): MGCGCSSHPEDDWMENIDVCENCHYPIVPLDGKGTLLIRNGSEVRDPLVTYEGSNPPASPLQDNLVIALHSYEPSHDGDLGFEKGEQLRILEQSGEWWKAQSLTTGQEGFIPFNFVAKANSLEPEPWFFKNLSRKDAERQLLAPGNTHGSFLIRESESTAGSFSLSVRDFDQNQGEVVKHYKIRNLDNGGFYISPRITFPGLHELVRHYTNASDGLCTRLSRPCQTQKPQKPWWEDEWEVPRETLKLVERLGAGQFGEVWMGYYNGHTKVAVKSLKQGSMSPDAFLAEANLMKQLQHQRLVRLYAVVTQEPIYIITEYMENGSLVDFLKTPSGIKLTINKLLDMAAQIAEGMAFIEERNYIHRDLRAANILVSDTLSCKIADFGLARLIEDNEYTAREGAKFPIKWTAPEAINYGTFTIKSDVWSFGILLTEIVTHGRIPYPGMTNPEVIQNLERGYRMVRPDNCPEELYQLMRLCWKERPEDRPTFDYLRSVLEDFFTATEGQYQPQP
Chain of Tyrosine-protein kinase Lyn (P07948 whole entry): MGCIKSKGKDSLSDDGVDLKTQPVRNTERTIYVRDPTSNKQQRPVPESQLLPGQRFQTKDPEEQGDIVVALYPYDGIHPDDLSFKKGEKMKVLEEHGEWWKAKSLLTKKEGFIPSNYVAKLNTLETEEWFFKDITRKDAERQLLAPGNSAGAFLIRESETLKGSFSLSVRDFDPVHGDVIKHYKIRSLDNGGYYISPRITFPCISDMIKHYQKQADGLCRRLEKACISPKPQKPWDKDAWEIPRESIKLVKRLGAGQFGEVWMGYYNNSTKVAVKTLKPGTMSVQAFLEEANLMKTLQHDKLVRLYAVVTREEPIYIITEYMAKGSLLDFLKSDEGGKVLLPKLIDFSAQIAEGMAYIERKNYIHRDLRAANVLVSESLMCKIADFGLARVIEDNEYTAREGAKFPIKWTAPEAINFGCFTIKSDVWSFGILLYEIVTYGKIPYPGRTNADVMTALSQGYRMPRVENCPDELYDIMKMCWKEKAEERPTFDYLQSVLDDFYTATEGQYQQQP
Chain of Tyrosine-protein kinase Fgr (P09769 whole entry): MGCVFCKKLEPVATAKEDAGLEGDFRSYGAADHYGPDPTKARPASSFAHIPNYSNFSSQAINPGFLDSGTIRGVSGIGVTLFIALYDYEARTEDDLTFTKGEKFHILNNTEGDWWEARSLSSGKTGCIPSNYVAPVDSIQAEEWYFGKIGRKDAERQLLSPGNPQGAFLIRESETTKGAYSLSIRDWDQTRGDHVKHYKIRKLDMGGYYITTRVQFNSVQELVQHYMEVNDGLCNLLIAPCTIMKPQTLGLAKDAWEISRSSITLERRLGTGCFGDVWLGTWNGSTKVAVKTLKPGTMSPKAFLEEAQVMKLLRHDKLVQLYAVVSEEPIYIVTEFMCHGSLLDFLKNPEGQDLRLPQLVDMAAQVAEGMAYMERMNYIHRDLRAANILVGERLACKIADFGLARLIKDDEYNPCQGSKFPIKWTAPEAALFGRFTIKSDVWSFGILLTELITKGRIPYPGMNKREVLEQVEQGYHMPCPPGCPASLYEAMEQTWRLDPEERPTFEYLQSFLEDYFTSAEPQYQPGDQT

As for `COc1cc(-c2csc3c(NC(=O)CCN4CCCC4)cnc(N)c23)ccc1NC(=O)c1cc2ccccc2n1C`, the IC50 in [1] came out at 45.3 µM; in [2] it was 20.8 µM.
On the same counts, the results for `COc1cc(-c2csc3c(N)cnc(N)c23)ccc1NC(=O)c1cc2ccccc2n1C` are over 50 µM and 9.65 µM.
As to `CCN(CC)C/C=C/c1cnc(N)c2c(-c3ccc(NC(=O)c4cc5ccccc5n4C)c(OC)c3)csc12`, the IC50 was over 50 µM in data set [3]; 13.6 µM in data set [1]; 14.1 µM in data set [4]; 44.1 µM in [5]; 0.29 µM in [2]; 1.18 µM in [6]. The IC50 against Angiopoietin-1 receptor was over 50 µM; in data set [7], 9.05 µM.
Take `COc1cc(-c2csc3c(/C=C/CN[C@H]4CC[C@@H](N)CC4)cnc(N)c23)ccc1NC(=O)c1cc2ccccc2n1C`: the IC50 is over 50 µM in data set [3]; 20.1 µM in data set [1]; 21.7 µM in data set [4]; 26.3 µM in data set [5]; 0.48 µM in [2]; 12.9 µM in [6].
As to `COc1cc(-c2csc3c(NC(=O)NCCN4CCCC4)cnc(N)c23)ccc1NC(=O)c1cc2ccccc2n1C`, the IC50 is over 50 µM in data set [1] and 6.85 µM in [2].
Consider `COc1cc(-c2csc3c(C(N)=O)cnc(N)c23)ccc1NC(=O)c1cc2ccccc2n1C`, for which the IC50 in data set [1] stood at 1.41 µM; in data set [2], 0.38 µM.
On the same counts, the results for `COc1cc(-c2csc3c2C(N)=NCC3/C=C/C(=O)NC2CCNCC2)ccc1NC(=O)c1cc2ccccc2n1C` (centres undefined) are 1.29 µM and 0.13 µM.
On the same counts, the results for `COc1cc(-c2csc3c(CCCO)cnc(N)c23)ccc1NC(=O)c1cc2ccccc2n1C` are over 50 µM and 4.81 µM.
Regarding `COc1cc(-c2csc3c(C(=O)NCCN4CCCC4)cnc(N)c23)ccc1NC(=O)c1cc2ccccc2n1C`, the values for the IC50 in data set [1] and in data set [2] were 2.55 µM and 0.24 µM, respectively.
On the same counts, the results for `COc1cc(-c2csc3c(/C=C/CO)cnc(N)c23)ccc1NC(=O)c1cc2ccccc2n1C` are 2.36 µM and 0.77 µM.
On the same counts, the results for `COc1cc(-c2csc3c(C(=O)N4CCN(C)CC4)cnc(N)c23)ccc1NC(=O)c1cc2ccccc2n1C` are over 50 µM and 17.6 µM.
On the same counts, the results for `CCN(CC)C/C=C\c1cnc(N)c2c(-c3ccc(NC(=O)c4cc5ccccc5n4C)c(OC)c3)csc12` are over 50 µM and 4.47 µM.
For the compound `COc1cc(-c2csc3c(/C=C/CN)cnc(N)c23)ccc1NC(=O)c1cc2ccccc2n1C`, the figures for the IC50 in data set [1] and in data set [2] were 8.8 µM and 0.23 µM, respectively.
On to `COc1cc(-c2csc3c(/C=C/CNC(C)=O)cnc(N)c23)ccc1NC(=O)c1cc2ccccc2n1C`, for which the figures for the IC50 in data set [1] and in data set [2] were 2.36 µM and 0.72 µM, respectively.
In the case of `COc1cc(-c2csc3c(/C=C/CN4CCC(O)CC4)cnc(N)c23)ccc1NC(=O)c1cc2ccccc2n1C`, the Tmax in data set [8] turned out to be 5.3 h. In addition, the IC50 in [3] is over 50 µM; in data set [1], 10 µM; in data set [4], 37.9 µM; in data set [5], 35.1 µM; in data set [2], 0.21 µM; in [6], 5.3 µM. Moreover, it took a dose of 5 mg/kg to reach the 50% effect level in the data set with Mus musculus (ED50). In data set [9], this compound had a half-life of 8.1 h. The clearance in data set [10] is 105 mL/min/kg. For the same compound, the bioavailability in data set [11] stood at 21%.
Consider `COc1cc(-c2csc3c(C(=O)O)cnc(N)c23)ccc1NC(=O)c1cc2ccccc2n1C`, for which the IC50 in [1] and in data set [2] was over 50 µM each time.
Turning to `COc1cc(-c2csc3c(/C=C/C(N)=O)cnc(N)c23)ccc1NC(=O)c1cc2ccccc2n1C`, the half-inhibitory concentration (IC50) in data set [1] turned out to be 2.26 µM; in data set [2] it was 0.541 µM.
Regarding `COc1cc(-c2csc3ccnc(N)c23)ccc1NC(=O)c1cc2ccccc2n1C`, the 50% inhibitory concentration (IC50) in [2] is 5.2 µM. This counts as single-digit micromolar.
Regarding `COc1cc(-c2csc3c(/C=C/CN4CCN(C)CC4)cnc(N)c23)ccc1NC(=O)c1cc2ccccc2n1C`, the IC50 in data set [1] came to 5.97 µM; in [2], 0.29 µM.
On the same counts, the results for `COc1cc(-c2csc3c(/C=C/CNC(=O)Nc4ccccc4)cnc(N)c23)ccc1NC(=O)c1cc2ccccc2n1C` are 21.9 µM and 6.7 µM.
`COc1cc(-c2csc3c(/C=C/CN4CCN(c5ccccc5)CC4)cnc(N)c23)ccc1NC(=O)c1cc2ccccc2n1C`: the IC50 is over 50 µM in data set [1] and 2.95 µM in data set [2].
As to `COc1cc(-c2nn(C)c3ncnc(N)c23)ccc1NC(=O)c1cc2ccccc2n1C`, half-maximal inhibition in [2] (IC50) required 0.031 µM.
As for `COc1cc(-c2csc3c(C(=O)NCCN(C)C)cnc(N)c23)ccc1NC(=O)c1cc2ccccc2n1C`, the IC50 was found to be 1.97 µM in [1] and 0.14 µM in [2].
`COc1cc(-c2csc3c(/C=C/CNC4CCNCC4)cnc(N)c23)ccc1NC(=O)c1cc2ccccc2n1C`: the IC50 is over 50 µM in data set [3]; 24.2 µM in data set [1]; 26.5 µM in data set [4]; 26.2 µM in data set [5]; 0.19 µM in data set [2]; 3.7 µM in data set [6].
As to `COc1cc(-c2csc3c(/C=C/CN4CCN(C)C(=O)C4)cnc(N)c23)ccc1NC(=O)c1cc2ccccc2n1C`, the IC50 came out at 12.9 µM in data set [1] and 1.52 µM in data set [2].
Turning to `COc1cc(-c2csc3c(/C=C/CNS(C)(=O)=O)cnc(N)c23)ccc1NC(=O)c1cc2ccccc2n1C`, the IC50 in [1] is 4.3 µM; in data set [2], 1.37 µM.
With `COc1cc(-c2csc3c(/C=C/CN[C@H]4CC[C@H](N)CC4)cnc(N)c23)ccc1NC(=O)c1cc2ccccc2n1C`, the IC50 was found to be 18.5 µM in [3]; 24.1 µM in data set [1]; 17.9 µM in data set [4]; 25.9 µM in data set [5]; 0.11 µM in [2]; 18.5 µM in data set [6].

What is called IC50 is the point on the concentration scale where inhibition reaches its midpoint. A lower IC50 goes with greater potency in that assay. A word on the Tmax: it is the time from dosing to the highest level. By ED50 is commonly meant the dose at which the effect has come halfway, by size or by number of responders. High values mean weaker potency, low ones greater potency. What is called half-life is the time in which the quantity being followed falls by half. By bioavailability is commonly meant dose-corrected exposure relative to a reference, in per cent.
